The values that follow come from US10370360B2, “Small-molecule inhibitors targeting discoidin domain receptor 1 and uses thereof” (priority 2014, dated 2019).

As a reminder, the IC50 is the concentration needed to halve the response being measured.

Molecules are shown by their SMILES.

Format in all cases: biochemical
Assay [1] addresses c-Kit (Homo sapiens (Human), UniProt P10721). Put plainly: FRET-based Z'-Lyte kinase assay, c-kit. The following applies: 300 μM ATP.
Assay [2] concerns the target DDR2 (Homo sapiens (Human), UniProt Q16832). Briefly: LanthaScreen Eu kinase activity assay, DDR2. To be noted: 100 nM ATP. A general note: In TR-FRET formats the signal depends on donor and acceptor labels being close together.
For assay [3], the target named is Bcr-Abl. Briefly: FRET-based Z'-Lyte kinase assay, Abl. The following applies: 10 μM ATP; cells printed in μM.
Assay [4] addresses DDR1 (Homo sapiens (Human), UniProt Q08345). Put plainly: LanthaScreen Eu kinase activity assay, DDR1. The following applies: 100 nM ATP.

Bcr-Abl, sequence (P00519 whole entry): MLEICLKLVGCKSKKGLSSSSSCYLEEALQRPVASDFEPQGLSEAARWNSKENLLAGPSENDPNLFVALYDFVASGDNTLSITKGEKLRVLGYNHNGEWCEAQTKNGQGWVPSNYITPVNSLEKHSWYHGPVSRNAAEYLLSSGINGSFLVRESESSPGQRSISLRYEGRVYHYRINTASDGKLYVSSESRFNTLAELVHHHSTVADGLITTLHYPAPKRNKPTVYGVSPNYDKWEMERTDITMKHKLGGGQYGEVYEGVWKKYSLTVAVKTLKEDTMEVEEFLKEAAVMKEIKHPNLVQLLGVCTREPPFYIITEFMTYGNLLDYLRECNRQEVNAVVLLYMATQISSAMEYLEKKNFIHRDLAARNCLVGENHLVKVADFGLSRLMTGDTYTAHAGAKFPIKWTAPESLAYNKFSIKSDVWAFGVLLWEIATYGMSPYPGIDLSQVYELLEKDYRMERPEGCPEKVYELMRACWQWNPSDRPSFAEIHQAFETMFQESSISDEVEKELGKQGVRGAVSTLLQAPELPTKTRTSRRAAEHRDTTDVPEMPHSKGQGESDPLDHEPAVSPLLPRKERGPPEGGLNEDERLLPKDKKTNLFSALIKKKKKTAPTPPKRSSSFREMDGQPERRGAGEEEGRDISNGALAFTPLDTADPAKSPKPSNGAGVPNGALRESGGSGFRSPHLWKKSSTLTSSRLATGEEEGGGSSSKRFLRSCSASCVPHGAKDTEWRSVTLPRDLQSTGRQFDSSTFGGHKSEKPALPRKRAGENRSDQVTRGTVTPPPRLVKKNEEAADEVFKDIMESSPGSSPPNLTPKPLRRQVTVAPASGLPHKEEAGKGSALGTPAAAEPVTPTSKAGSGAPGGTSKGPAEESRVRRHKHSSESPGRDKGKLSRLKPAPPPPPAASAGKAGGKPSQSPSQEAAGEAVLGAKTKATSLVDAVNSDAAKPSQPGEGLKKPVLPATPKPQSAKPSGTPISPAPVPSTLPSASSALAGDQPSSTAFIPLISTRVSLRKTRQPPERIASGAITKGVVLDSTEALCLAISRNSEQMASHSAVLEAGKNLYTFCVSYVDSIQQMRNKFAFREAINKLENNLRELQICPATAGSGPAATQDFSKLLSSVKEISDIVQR
DDR2, sequence (Q16832 22-855): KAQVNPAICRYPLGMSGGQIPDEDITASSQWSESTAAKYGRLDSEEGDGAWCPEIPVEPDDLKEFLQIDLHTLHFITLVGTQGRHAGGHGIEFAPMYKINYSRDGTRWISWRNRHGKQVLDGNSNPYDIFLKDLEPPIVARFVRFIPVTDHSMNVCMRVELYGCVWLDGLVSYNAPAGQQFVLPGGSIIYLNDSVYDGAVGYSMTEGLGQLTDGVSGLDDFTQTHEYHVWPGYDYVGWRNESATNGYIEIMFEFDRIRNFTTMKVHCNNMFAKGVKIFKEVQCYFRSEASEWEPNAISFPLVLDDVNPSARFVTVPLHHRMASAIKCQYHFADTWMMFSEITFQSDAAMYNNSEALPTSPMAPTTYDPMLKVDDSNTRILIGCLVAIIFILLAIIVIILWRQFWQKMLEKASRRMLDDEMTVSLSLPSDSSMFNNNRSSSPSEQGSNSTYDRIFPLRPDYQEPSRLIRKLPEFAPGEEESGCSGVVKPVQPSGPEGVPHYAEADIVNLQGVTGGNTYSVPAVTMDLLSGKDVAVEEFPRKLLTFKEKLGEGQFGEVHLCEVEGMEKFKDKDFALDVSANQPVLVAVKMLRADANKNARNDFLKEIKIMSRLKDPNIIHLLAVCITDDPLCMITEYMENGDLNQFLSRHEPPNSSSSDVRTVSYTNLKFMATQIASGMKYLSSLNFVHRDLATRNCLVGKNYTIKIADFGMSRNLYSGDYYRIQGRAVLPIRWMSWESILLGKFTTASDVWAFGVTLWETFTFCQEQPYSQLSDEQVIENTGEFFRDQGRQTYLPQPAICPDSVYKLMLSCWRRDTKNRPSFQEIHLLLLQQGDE
DDR1, sequence (Q08345 19-913): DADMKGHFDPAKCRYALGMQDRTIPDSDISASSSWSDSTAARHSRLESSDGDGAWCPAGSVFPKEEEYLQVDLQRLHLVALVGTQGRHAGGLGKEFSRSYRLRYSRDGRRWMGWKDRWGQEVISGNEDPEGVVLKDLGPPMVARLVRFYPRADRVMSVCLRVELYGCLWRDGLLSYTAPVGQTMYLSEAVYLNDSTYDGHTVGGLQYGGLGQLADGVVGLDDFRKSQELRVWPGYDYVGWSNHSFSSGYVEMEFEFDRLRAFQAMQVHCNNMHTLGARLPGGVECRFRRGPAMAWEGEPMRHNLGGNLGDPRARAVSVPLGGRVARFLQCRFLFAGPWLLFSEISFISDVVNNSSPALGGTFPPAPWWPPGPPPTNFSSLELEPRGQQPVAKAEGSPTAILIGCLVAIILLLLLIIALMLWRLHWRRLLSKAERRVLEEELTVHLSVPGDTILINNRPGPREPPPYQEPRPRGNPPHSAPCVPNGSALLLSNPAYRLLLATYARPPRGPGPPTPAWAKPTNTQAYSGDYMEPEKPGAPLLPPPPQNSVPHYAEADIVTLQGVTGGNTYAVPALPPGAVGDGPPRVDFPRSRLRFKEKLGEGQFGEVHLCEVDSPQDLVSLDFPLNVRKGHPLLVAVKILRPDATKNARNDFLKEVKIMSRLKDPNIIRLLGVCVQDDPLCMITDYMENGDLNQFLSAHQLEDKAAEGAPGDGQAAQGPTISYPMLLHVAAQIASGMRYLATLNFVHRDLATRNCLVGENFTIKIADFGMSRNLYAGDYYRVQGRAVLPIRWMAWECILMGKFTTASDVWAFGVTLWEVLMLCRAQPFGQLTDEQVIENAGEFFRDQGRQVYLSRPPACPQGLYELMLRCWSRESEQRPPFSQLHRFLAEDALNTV
c-Kit, sequence (P10721 26-976): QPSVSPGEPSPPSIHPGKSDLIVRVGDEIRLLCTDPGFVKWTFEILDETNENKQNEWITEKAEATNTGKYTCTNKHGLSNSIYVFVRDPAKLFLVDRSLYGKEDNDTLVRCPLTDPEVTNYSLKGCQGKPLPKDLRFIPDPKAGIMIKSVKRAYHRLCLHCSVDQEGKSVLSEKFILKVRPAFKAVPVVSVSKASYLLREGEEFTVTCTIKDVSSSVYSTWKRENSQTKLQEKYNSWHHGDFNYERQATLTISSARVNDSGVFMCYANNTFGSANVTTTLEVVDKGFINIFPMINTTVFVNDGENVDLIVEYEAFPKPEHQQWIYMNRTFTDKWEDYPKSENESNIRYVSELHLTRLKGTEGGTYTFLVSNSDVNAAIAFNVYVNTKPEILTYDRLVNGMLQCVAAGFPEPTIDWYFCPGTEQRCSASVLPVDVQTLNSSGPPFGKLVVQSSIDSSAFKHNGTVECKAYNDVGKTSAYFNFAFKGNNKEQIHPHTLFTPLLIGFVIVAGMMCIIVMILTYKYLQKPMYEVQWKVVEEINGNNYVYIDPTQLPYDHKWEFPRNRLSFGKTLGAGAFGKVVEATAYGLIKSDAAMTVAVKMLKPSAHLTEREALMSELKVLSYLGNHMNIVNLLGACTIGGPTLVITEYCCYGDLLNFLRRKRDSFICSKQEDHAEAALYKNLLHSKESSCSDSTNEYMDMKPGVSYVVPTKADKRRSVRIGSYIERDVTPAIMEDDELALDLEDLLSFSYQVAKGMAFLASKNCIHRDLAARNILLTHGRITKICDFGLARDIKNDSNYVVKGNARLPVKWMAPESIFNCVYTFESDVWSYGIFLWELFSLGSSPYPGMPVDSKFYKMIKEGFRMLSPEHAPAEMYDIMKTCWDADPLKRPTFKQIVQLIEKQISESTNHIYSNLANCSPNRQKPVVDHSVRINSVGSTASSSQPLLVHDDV

`CC1CN(c2cncnc2)Cc2cc(C(=O)Nc3cc(CN4CCN(C)CC4)cc(C(F)(F)F)c3)ccc21` (centres unmarked) [Example 1, 4-methyl-N-(3-((4-methylpiperazin-1-yl)methyl)-5-(trifluoromethyl)phenyl)-2-(pyrimidin-5-yl)-1,2,3,4-tetrahydroisoquinoline-7-carboxamide]: in assay [1], the IC50 was > 10000 nM.

Regarding `CN1CCN(Cc2cc(NC(=O)c3ccc4c(c3)CN(c3cncnc3)CC4)cc(C(F)(F)F)c2)CC1` [Example 3, N-(3-((4-methylpiperazin-1-yl)methyl)-5-(trifluoromethyl)phenyl)-2-(pyrimidin-5-yl)-1,2,3,4-tetrahydroisoquinoline-7-carboxamide], the results for the half-inhibitory concentration (IC50) in assay [2] (cells printed in μM) and in assay [1] were 8 µM and > 10000 nM, respectively.

Consider `CN1CCN(Cc2cc(NC(=O)c3ccc4c(c3)CN(c3cccnc3)CC4)cc(C(F)(F)F)c2)CC1` [Example 4, N-(3-((4-methylpiperazin-1-yl)methyl)-5-(trifluoromethyl)phenyl)-2-(pyridin-3-yl)-1,2,3,4-tetrahydroisoquinoline-7-carboxamide], for which the IC50 in assay [2] (cells printed in μM) is 4.3 µM; in assay [1] it was > 10000 nM.

With `CN1CCN(Cc2cc(NC(=O)c3ccc4c(c3)CN(c3cnc5ccccc5c3)CC4)cc(C(F)(F)F)c2)CC1` [Example 5, N-(3-((4-methylpiperazin-1-yl)methyl)-5-(trifluoromethyl)phenyl)-2-(quinolin-3-yl)-1,2,3,4-tetrahydroisoquinoline-7-carboxamide], the IC50 in assay [1] was 8700 nM.

As for `CC1CN(c2cccnc2)Cc2cc(C(=O)Nc3cc(CN4CCN(C)CC4)cc(C(F)(F)F)c3)ccc21` (centres unmarked) [Example 6, 4-methyl-N-(3-((4-methylpiperazin-1-yl)methyl)-5-(trifluoromethyl)phenyl)-2-(pyridin-3-yl)-1,2,3,4-tetrahydroisoquinoline-7-carboxamide], the figures for the IC50 in assay [2] (cells printed in μM) and in assay [1] were 1.2 µM and > 10000 nM, respectively.

On to `CN1CCN(Cc2cc(NC(=O)c3ccc4c(c3)CN(c3cncnc3)CC4(C)C)cc(C(F)(F)F)c2)CC1` [Example 7, 4,4-dimethyl-N-(3-((4-methylpiperazin-1-yl)methyl)-5-(trifluoromethyl)phenyl)-2-(pyrimidin-5-yl)-1,2,3,4-tetrahydroisoquinoline-7-carboxamide], for which the half-inhibitory concentration (IC50) in assay [2] (cells printed in μM) is 4.5 µM; in assay [3], > 10 µM; in assay [4] it was 223 nM; in assay [1] it was > 10000 nM.

As to `CC1CN(c2cncnc2)Cc2cc(C(=O)Nc3cc(CN4CCN(C)CC4)c(Cl)c(C(F)(F)F)c3)ccc21` (centres unmarked) [Example 8, N-(4-chloro-3-((4-methylpiperazin-1-yl)methyl)-5-(trifluoromethyl)phenyl)-4-methyl-2-(pyrimidin-5-yl)-1,2,3,4-tetrahydroisoquinoline-7-carboxamide], the concentration for half-maximal inhibition (IC50) was 0.915 µM in assay [2] (cells without unit) and > 10000 nM in assay [1].

In the case of `Cc1c(CN2CCN(C)CC2)cc(NC(=O)c2ccc3c(c2)CN(c2cncnc2)CC3C)cc1C(F)(F)F` (centres unmarked) [Example 9, 4-methyl-N-(4-methyl-3-((4-methylpiperazin-1-yl)methyl)-5-(trifluoromethyl)phenyl)-2-(pyrimidin-5-yl)-1,2,3,4-tetrahydroisoquinoline-7-carboxamide], the figures for the IC50 in assay [2] (cells printed in μM) and in assay [1] were 1.1 µM and > 10000 nM, respectively.

Regarding `CC1CN(c2cncnc2)Cc2cc(C(=O)Nc3cc(CCN4CCN(C)CC4)cc(C(F)(F)F)c3)ccc21` (centres unmarked) [Example 10, 4-methyl-N-(3-(2-(4-methylpiperazin-1-yl)ethyl)-5-(trifluoromethyl)phenyl)-2-(pyrimidin-5-yl)-1,2,3,4-tetrahydroisoquinoline-7-carboxamide], the IC50 is 0.449 µM in assay [2] (cells without unit), > 10 µM in assay [3], 36.7 nM in assay [4] and > 10000 nM in assay [1].

With `CC1CN(c2cncnc2)Cc2cc(C(=O)Nc3cc(N4CCN(C)CC4)cc(C(F)(F)F)c3)ccc21` (centres unmarked) [Example 11], the concentration for half-maximal inhibition (IC50) in assay [2] (cells printed in μM) was 2.2 µM; in assay [3], > 10 µM; in assay [4], 132 nM; in assay [1], > 10000 nM.

As to `CC1CN(c2cncnc2)Cc2cc(C(=O)Nc3ccc(CN4CCN(C)CC4)c(C(F)(F)F)c3)ccc21` (centres unmarked) [Example 12, 4-methyl-N-(4-((4-methylpiperazin-1-yl)methyl)-3-(trifluoromethyl)phenyl)-2-(pyrimidin-5-yl)-1,2,3,4-tetrahydroisoquinoline-7-carboxamide], the IC50 in assay [2] (cells without unit) is 0.334 µM; in assay [4] it was 19.9 nM; in assay [1], > 10000 nM.

In the case of `CC1CN(c2cncnc2)Cc2cc(C(=O)Nc3cccc(C(F)(F)F)c3)ccc21` (centres unmarked) [Example 13, 4-methyl-2-(pyrimidin-5-yl)-N-(3-(trifluoromethyl)phenyl)-1,2,3,4-tetrahydroisoquinoline-7-carboxamide], the concentration for half-maximal inhibition (IC50) in assay [2] (cells printed in μM) was 10 µM; in assay [3] it was > 10 µM; in assay [4], 191 nM; in assay [1], > 10000 nM.

With `CC1CN(c2cncnc2)Cc2cc(C(=O)Nc3cc(CN(C)CCN(C)C)cc(C(F)(F)F)c3)ccc21` (centres unmarked) [Example 23, N-(3-(((2-(dimethylamino)ethyl)(methyl)amino)methyl)-5-(trifluoromethyl)phenyl)-4-methyl-2-(pyrimidin-5-yl)-1,2,3,4-tetrahydroisoquinoline-7-carboxamide], the half-inhibitory concentration (IC50) in assay [2] (cells printed in μM) is 1.2 µM; in assay [1] it was > 10000 nM.

Turning to `CC1CN(c2cncnc2)Cc2cc(C(=O)Nc3cc(CN4CC[C@@H](N(C)C)C4)cc(C(F)(F)F)c3)ccc21` (stereo partly drawn) [Example 24, N-(3-(((R)-3-(dimethylamino)pyrrolidin-1-yl)methyl)-5-(trifluoromethyl)phenyl)-4-methyl-2-(pyrimidin-5-yl)-1,2,3,4-tetrahydroisoquinoline-7-carboxamide], the results for the IC50 in assay [2] (cells without unit) and in assay [1] were 0.672 µM and > 10000 nM, respectively.

`CC1CN(c2cncnc2)Cc2cc(C(=O)Nc3cc(CN4CC[C@H](N(C)C)C4)cc(C(F)(F)F)c3)ccc21` (stereo partly drawn) [Example 25, N-(3-(((S)-3-(dimethylamino)pyrrolidin-1-yl)methyl)-5-(trifluoromethyl)phenyl)-4-methyl-2-(pyrimidin-5-yl)-1,2,3,4-tetrahydroisoquinoline-7-carboxamide]: the IC50 is 0.862 µM in assay [2] (cells without unit) and > 10000 nM in assay [1].

In the case of `CC1CN(c2cncnc2)Cc2cc(C(=O)Nc3cc(CN4CCN(C)CC4)c(F)c(C(F)(F)F)c3)ccc21` (centres unmarked) [Example 27, N-(4-fluoro-3-((4-methylpiperazin-1-yl)methyl)-5-(trifluoromethyl)phenyl)-4-methyl-2-(pyrimidin-5-yl)-1,2,3,4-tetrahydroisoquinoline-7-carboxamide], the IC50 in assay [2] (cells printed in μM) was 1.4 µM; in assay [1] it was > 10000 nM.

With `CC1CN(c2cncnc2)Cc2cc(C(=O)Nc3cc(CN4CCN(C)CC4)cc(C(C)(C)C)c3)ccc21` (centres unmarked) [Example 28, N-(3-tert-butyl-5-((4-methylpiperazin-1-yl)methyl)phenyl)-4-methyl-2-(pyrimidin-5-yl)-1,2,3,4-tetrahydroisoquinoline-7-carboxamide], the results for the half-inhibitory concentration (IC50) in assay [2] (cells without unit), in assay [4] and in assay [1] were 0.94 µM, 66.6 nM and > 10000 nM, respectively.

Consider `CC1CN(c2cncnc2)Cc2cc(C(=O)Nc3cc(CN4CCN(C)CC4)cc(-c4ccccc4)c3)ccc21` (centres unmarked) [Example 29, 4-methyl-N-(5-((4-methylpiperazin-1-yl)methyl)biphenyl-3-yl)-2-(pyrimidin-5-yl)-1,2,3,4-tetrahydroisoquinoline-7-carboxamide], for which the IC50 in assay [2] (cells printed in μM) is 1.4 µM; in assay [4], 44.6 nM; in assay [1] it was > 10000 nM.

As for `CC1CN(c2cncnc2)Cc2cc(C(=O)Nc3cc(CN4CCN(C)CC4)cc(C4CC4)c3)ccc21` (centres unmarked) [Example 31, N-(3-cyclopropyl-5-((4-methylpiperazin-1-yl)methyl)phenyl)-4-methyl-2-(pyrimidin-5-yl)-1,2,3,4-tetrahydroisoquinoline-7-carboxamide], the figures for the IC50 in assay [2] (cells printed in μM), in assay [4] and in assay [1] were 1.1 µM, 89 nM and > 10000 nM, respectively.

In the case of `CC1CN(c2cncnc2)Cc2cc(C(=O)Nc3cc(CN4CCN(C)CC4)cc(C4CCCC4)c3)ccc21` (centres unmarked) [Example 32, N-(3-cyclopentyl-5-((4-methylpiperazin-1-yl)methyl)phenyl)-4-methyl-2-(pyrimidin-5-yl)-1,2,3,4-tetrahydroisoquinoline-7-carboxamide], the IC50 in assay [2] (cells without unit) was 0.306 µM; in assay [1] it was > 10000 nM.

Regarding `CCC1CN(c2cncnc2)Cc2cc(C(=O)Nc3cc(CN4CCN(C)CC4)cc(C(F)(F)F)c3)ccc21` (centres unmarked) [Example 34, 4-ethyl-N-(3-((4-methylpiperazin-1-yl)methyl)-5-(trifluoromethyl)phenyl)-2-(pyrimidin-5-yl)-1,2,3,4-tetrahydroisoquinoline-7-carboxamide], the figures for the IC50 in assay [2] (cells printed in μM) and in assay [1] were 2 µM and > 10000 nM, respectively.

With `CN1CCN(Cc2cc(C(=O)Nc3ccc4c(c3)CN(c3cncnc3)CC4)cc(C(F)(F)F)c2)CC1` [Example 36, 3-((4-methylpiperazin-1-yl)methyl)-N-(2-(pyrimidin-5-yl)-1,2,3,4-tetrahydroisoquinolin-7-yl)-5-(trifluoromethyl)benzamide], the values for the IC50 in assay [2] (cells printed in μM) and in assay [1] were 7.8 µM and > 10000 nM, respectively.

`C[C@@H]1CN(c2cncnc2)Cc2cc(C(=O)Nc3cc(CN4CCN(C)CC4)cc(C(F)(F)F)c3)ccc21` [Example 37, (S)-4-methyl-N-(3-((4-methylpiperazin-1-yl)methyl)-5-(trifluoromethyl)phenyl)-2-(pyrimidin-5-yl)-1,2,3,4-tetrahydroisoquinoline-7-carboxamide]: the half-maximal inhibitory concentration (IC50) in assay [1] is > 10000 nM.

`C[C@H]1CN(c2cncnc2)Cc2cc(C(=O)Nc3cc(CN4CCN(C)CC4)cc(C(F)(F)F)c3)ccc21` [Example 38, (R)-4-methyl-N-(3-((4-methylpiperazin-1-yl)methyl)-5-(trifluoromethyl)phenyl)-2-(pyrimidin-5-yl)-1,2,3,4-tetrahydroisoquinoline-7-carboxamide]: in assay [1], the IC50 is > 10000 nM.
